Experimental data reported in PMC12177125, “Anticancer, antimicrobial and molecular docking analysis of newly synthesized iodoquinazoline derivatives” (AMB Express, 2025).
≈ marks a conversion by molar mass, not a printed value. Where “and” joins values, the source holds several entries; their conditions need not be identical. Identical values can stand only once. Entries after “also recorded” stand apart in the source; their conditions may differ. Like-named read-outs stand apart in the source and are kept apart here.

Legend:
[1] = system: C. albicans (CA) ATCC 14053; test: Agar well diffusion, C. albicans; assay type: cell-based, Candida albicans; settings: average of triplicate
Experimental: (§1) The five newly synthesized compounds were first qualitatively evaluated for antibacterial and antifungal activities using Muller-Hinton agar medium (MHA) through the agar well diffusion technique as previously described (Balouiri et al. [2016]). The bacterial test was performed against the following standard strains: S. aureus (SA) ATCC 25913, E. coli (EC) ATCC 25922, P. aeruginosa (PA) ATCC 27853, K. pneumoniae (KP) ATCC 49619. The antifungal activity was evaluated against C. albicans (CA) ATCC 14053 (CLSI [2021]). A bacterial culture and preparation of wells on a seeded MHA plate was performed as previously described (Isleem et al. [2025]). The experiment was done in triplicate according to CLSI guidelines (CLSI [2021]). Secondly, the compounds that gave positive inhibition zones were selected for MIC determination using broth microdilution assay according to CLSI guidelines (CLSI [2021]). […]

E. coli (EC) ATCC 25922 [2] = test: Agar well diffusion, E. coli; assay type: cell-based, Escherichia coli; settings: average of triplicate
Experimental: as §1

[3] = system: P. aeruginosa (PA) ATCC 27853; test: Broth microdilution MIC, P. aeruginosa; assay type: cell-based; settings: Pseudomonas aeruginosa, ATCC27853, CLSI
[4] = system: STAT3-null A4 cell line (sub-line of DLD1 colorectal carcinoma); test: MTT cytotoxicity assay, A4 control cell line; assay type: cell-based; settings: Homo sapiens, DLD-1, 96 h continuous exposure, read-out: In vitro antitumor activities (IC50) A4 Cell line (Control cell line)
Excerpt: (§2) Four immortalized human cancer cell lines served as a panel for testing the compounds' cytotoxicity. The STAT3-null A4 cell line (with homozygously deleted STAT3) is a sub-line of the DLD1 colorectal carcinoma cell line and was a gift from Professor David Thurston, Emeritus Professor of Drug Discovery, King’s College London. The American Type Culture Collection and LGC provided the cell lines for HeLa (human cervical cancer), MIA-PaCa-2 (human pancreatic adenocarcinoma), MDA MB231 (triple negative human breast cancer), and NCI H1975 (human non-small cell lung cancer). Every cell line was kept in monolayer culture in 75 cm^2 flasks (TPP, Switzerland) at 37 °C in a humidified environment containing 5% CO2. The HeLa line was kept in Dulbecco's Modified Eagles Media (DMEM; Invitrogen), which was enhanced with L-glutamine (2 mM; Invitrogen), non-essential amino acids (1 x; Invitrogen), 10% v/v fetal bovine serum, and Penicillin–Streptomycin (1% v/v; Invitrogen).
(§3) Dulbecco's MEM was utilized for MIA PaCa2, and it was enhanced with fetal calf serum (10%, Biosera UK) and L-glutamine (2 mM; Invitrogen). The following materials were employed for sub-culturing: L-glutamine (2 mM; Invitrogen), fetal bovine serum (10%, Biosera UK), high glucose DMEM (4.5 g/l; Invitrogen), Penicillin–Streptomycin (1% v/v, Invitrogen), and non-essential amino acids (1x; Invitrogen). Penicillin–Streptomycin (1% v/v, Invitrogen) and fetal bovine serum (10% v/v; Invitrogen) were added to Roswell Park Memorial Institute Medium 1640 (RPMI 1640, Invitrogen) to sustain the NCI H1975 cell lines. Cells were passaged by rinsing them in PBS (GIBCO 14040, Invitrogen, UK), culturing them with trypsin (GIBCO 25300, Invitrogen, UK), and then reseeding them into new media. Cells were counted for seeding on a non-adherent suspension of cells that were rinsed in PBS, trypsinized, centrifuged at 8 °C for 5 min at 8000 rpm, and then re-suspended in new media using a Neubauer hemocytometer (Assistant, Germany) by microscopy (Nikon, USA).
(§4) Using the proper medium, the cells were cultured under standard cell culture conditions at 37 °C in a humidified atmosphere with 5% CO2. Depending on the cell line, 5,000–20,000 cells were added per well after the cell count was adjusted to 10^5 cells/mL. After a 24-h incubation period, 1 μL of the suitable inhibitor doses were applied in triplicate to the wells (Freimoser et al. [1999]). The MTT colorimetric test (3-(4,5-Dimethylthiazol-2-yl)-2,5-diphenyltetrazolium bromide) (Lancaster Synthesis Ltd, UK) was used to assess the cytotoxicity of each chemical after 96 h of continuous exposure (Freimoser et al. [1999]). Using an Envision Plate Reader from PerkinElmer, USA, spectrophotometry was used to measure absorbance at λ = 570 nm. Using the Prism Graphpad Prism® program, a dose–response analysis was used to get the IC50 values. MDA MB231; HeLa; MIA Cell lysis buffer was added to PaCa2 cells after they had been exposed to different doses of chemical 3e. The cells were then collected. Following the electrophoresis of total cell lysates on precast TGX gels, β-actin and CAXII antibodies were immunoblotted (Ghomashi et al. [2023]). Doxorubicin was used as a positive control (Ghomashi et al. [2023]).

[5] = system: NCI H1975 (human non-small cell lung cancer); test: MTT cytotoxicity assay, NCI H1975; assay type: cell-based; settings: 96 h continuous exposure, read-out: In vitro antitumor activities (IC50) NCI H1975 (non-small cell Lung)
Excerpt: as §2, §3, §4

[6] = system: four tested tumor cell lines; test: MTT cytotoxicity assay, panel of the four tumor cell lines; assay type: cell-based, human; settings: for IC50: Homo sapiens, range across HeLa, MDA MB231, MIA PaCa2, NCI H1975, read-out: IC50 / concentration stopping growth, range over the four tumor cell lines
Excerpt: as §2, §3
Using the proper medium, the cells were cultured under standard cell culture conditions at 37 °C in a humidified atmosphere with 5% CO2. Depending on the cell line, 5,000–20,000 cells were added per well after the cell count was adjusted to 10^5 cells/mL. After a 24-h incubation period, 1 μL of the suitable inhibitor doses were applied in triplicate to the wells (Freimoser et al. [1999]). The MTT colorimetric test (3-(4,5-Dimethylthiazol-2-yl)-2,5-diphenyltetrazolium bromide) (Lancaster Synthesis Ltd, UK) was used to assess the cytotoxicity of each chemical after 96 h of continuous exposure (Freimoser et al. [1999]). Using an Envision Plate Reader from PerkinElmer, USA, spectrophotometry was used to measure absorbance at λ = 570 nm. […]

[7] = system: MDA MB231 (triple negative human breast cancer); test: MTT cytotoxicity assay, MDA MB231; assay type: cell-based; settings: MDA-MB-231, 96 h continuous exposure, read-out: In vitro antitumor activities (IC50) MDA MB231 (Breast)
Excerpt: as §2, §3, §4

[8] = molecular target: T1, carbonic anhydrase XII (CAXII) (Bos taurus, UniProt P00921); test: Carbonic anhydrase (CAXII) inhibition, 4-nitrophenyl acetate, 96-well plate; assay type: biochemical, bovine
T1 construct: purified bovine erythrocyte CA-II; from tissue; host or cells: bovine erythrocytes
T1 sequence (P00921 2-260): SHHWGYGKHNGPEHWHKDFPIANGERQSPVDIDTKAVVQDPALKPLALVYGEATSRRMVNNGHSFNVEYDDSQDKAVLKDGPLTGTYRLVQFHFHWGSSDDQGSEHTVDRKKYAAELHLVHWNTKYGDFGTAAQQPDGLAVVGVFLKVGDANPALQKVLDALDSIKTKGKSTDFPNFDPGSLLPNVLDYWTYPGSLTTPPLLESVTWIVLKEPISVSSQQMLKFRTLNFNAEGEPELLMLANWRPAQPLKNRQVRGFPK

E. coli (EC) ATCC 25922 [9] = test: Broth microdilution MIC, E. coli; assay type: cell-based; settings: Escherichia coli, ATCC25922, CLSI
[10] = system: MIA-PaCa-2 (human pancreatic adenocarcinoma); test: MTT cytotoxicity assay, MIA PaCa2; assay type: cell-based; settings: 96 h continuous exposure, read-out: In vitro antitumor activities (IC50) MIA PaCa2 (Pancreatic)
Excerpt: as §2, §3, §4

[11] = system: S. aureus (SA) ATCC 25913; test: Agar well diffusion, S. aureus; assay type: cell-based, Staphylococcus aureus; settings: average of triplicate
Experimental: as §1

[12] = system: P. aeruginosa (PA) ATCC 27853; test: Agar well diffusion, P. aeruginosa; assay type: cell-based, Pseudomonas aeruginosa; settings: average of triplicate
Experimental: as §1

[13] = system: C. albicans (CA) ATCC 14053; test: Broth microdilution MIC, C. albicans; assay type: cell-based; settings: Candida albicans, ATCC14053, CLSI
Experimental: as §1

[14] = system: HeLa (human cervical cancer); test: MTT cytotoxicity assay, HeLa; assay type: cell-based; settings: 96 h continuous exposure, read-out: In vitro antitumor activities (IC50) HeLa (Cervical)
Excerpt: as §2, §3, §4

[15] = system: S. aureus (SA) ATCC 25913; test: Broth microdilution MIC, S. aureus; assay type: cell-based; settings: Staphylococcus aureus, ATCC25913, CLSI
[16] = read-out: CAXII inhibitory activity (IC50)

MIC [3] [µg/mL] | IC50 [8, 16] | MIC (E. coli (EC) ATCC 25922 [9]) [µg/mL] | MIC [13] [µg/mL] | MIC [15] [µg/mL] | IC50 ([8]; text of b65, unit printed nM, read-out: CAXII inhibition (converted)) [nM] | Compound | Inhibition Zone CA ATCC 14053 [1] [mm] | Inhibition Zone EC ATCC 25922 (E. coli (EC) ATCC 25922 [2]) [mm] | IC50 [4] [µM] | IC50 [5] [µM] | Anticancer activity against the four tested tumor cell lines (in words) [6] | IC50 [7] [µM] | IC50 [10] [µM] | Inhibition Zone SA ATCC 25913 [11] [mm] | Inhibition Zone PA ATCC 27853 [12] [mm] | IC50 [14] [µM] | IC50 [6] [µM]
32 (≈ 49.6 µM) | > 50000 nM | 32 (≈ 49.6 µM) | 16 (≈ 24.8 µM) | 16 (≈ 24.8 µM) | – | COc1ccc(-c2nc(Nc3ccc(S(=O)(=O)Nc4nccs4)cc3)c3cc(I)ccc3n2)cc1OC [Compound 3e, 6-Iodo-2-(3,4-dimethoxyphenyl)-4-(4-(thiazol-2-yl)aminosulphonylphenyl-amino)-quinazoline] | 12 | 10 | > 50 | > 50 | devoid of anticancer activities; also recorded: weak activity | > 50 | > 50 | 14 | 10 | > 50 | –
32 (≈ 52 µM) | 8190 nM | 32 (≈ 52 µM) | 8 (≈ 13 µM) | 4 (≈ 6.5 µM) | 8910 | COc1ccc(-c2nc(Nc3ccc(S(=O)(=O)Nc4nccs4)cc3)c3cc(I)ccc3n2)cc1 [Compound 3d, 6-Iodo-2-(4-methoxyphenyl)-4-(4-(thiazol-2-yl)aminosulphonylphenyl-amino)-quinazoline] | 12 | 10 | > 50 | 12.3 ± 0.9 | – | 6.4 ± 1.76 | 6.1 ± 1.3 | 16 | 12 | 8.2 ± 2.1 | –
16 (≈ 27.3 µM) | 3690 nM | 4 (≈ 6.83 µM) | 4 (≈ 6.83 µM) | 1 (≈ 1.71 µM) | – | O=S(=O)(Nc1nccs1)c1ccc(Nc2nc(-c3ccccc3)nc3ccc(I)cc23)cc1 [Compound 3c, 6-Iodo-2-phenyl-4-(4-(thiazol-2-yl)aminosulphonylphenyl-amino) quinazoline] | 16 | 15 | > 50 | 8 ± 0.5 | – | 6.4 ± 0.9 | 5.5 ± 0.8 | 22 | 12 | 4 ± 0.66 | 4 to 8
32 (≈ 60.1 µM) | 3690 nM and 3750 nM | 8 (≈ 15 µM) | 16 (≈ 30.1 µM) | 2 (≈ 3.76 µM) | – | COc1ccc(-c2nc(Nc3ccc(S(N)(=O)=O)cc3)c3cc(I)ccc3n2)cc1 [Compound 3b, 6-Iodo-4-(4-aminosulphonylphenyl-amino)-2-(4-methoxyphenyl)-quinazoline] | 10 | 12 | > 50 | 9.1 ± 1.8 | – | 7.3 ± 0.8 | 7.3 ± 0.9 | 18 | 10 | 6.1 ± 0.12 | 6 to 9
– | 9510 nM | 8 (≈ 18.8 µM) | 16 (≈ 37.5 µM) | 8 (≈ 18.8 µM) | – | NS(=O)(=O)c1ccc(Nc2ncnc3ccc(I)cc23)cc1 [Compound 3a, 6-Iodo-4-(4-aminosulphonylphenyl-amino) quinazoline] | 10 | 10 | > 50 | 13.2 ± 1.5 | – | 12 ± 1.25 | 14 ± 1.6 | 14 | 0 | 10.5 ± 1.6 | –

The remaining lines, values behind:

Compound | MIC [3] [µg/mL] | IC50 [8, 16] | MIC (E. coli (EC) ATCC 25922 [9]) [µg/mL] | MIC [13] [µg/mL] | MIC [15] [µg/mL] | IC50 ([8]; text of b65, unit printed nM, read-out: CAXII inhibition (converted)) [nM] | Inhibition Zone CA ATCC 14053 [1] [mm] | Inhibition Zone EC ATCC 25922 (E. coli (EC) ATCC 25922 [2]) [mm] | IC50 [4] [µM] | IC50 [5] [µM] | Anticancer activity against the four tested tumor cell lines (in words) [6] | IC50 [7] [µM] | IC50 [10] [µM] | Inhibition Zone SA ATCC 25913 [11] [mm] | Inhibition Zone PA ATCC 27853 [12] [mm] | IC50 [14] [µM] | IC50 [6] [µM]
O=C(O)c1cn(C2CC2)c2cc(N3CCNCC3)c(F)cc2c1=O [Ciprofloxacin, reference compound] | – | – | – | – | – | – | – | 25 | – | – | – | – | – | 21 | 25 | – | –
COc1cccc2c1C(=O)c1c(O)c3c(c(O)c1C2=O)C[C@@](O)(C(=O)CO)C[C@@H]3O[C@H]1C[C@H](N)[C@H](O)[C@H](C)O1 [Doxorubicin, reference compound] | – | – | – | – | – | – | – | – | – | 2.8 ± 0.5 | – | 2.7 ± 0.6 | 2.3 ± 0.6 | – | – | 3.25 ± 0.5 | 2.3 to 3.25
OC(Cn1cncn1)(Cn1cncn1)c1ccc(F)cc1F [Fluconazole, reference compound] | – | – | – | 1 (≈ 3.27 µM) | – | – | 20 | – | – | – | – | – | – | – | – | – | –
